Assay results as given in US12678510B2, “Drug loaded peptide brush polymers” (priority 2020, dated 2026).
Peptide text beside a SMILES is read from it. * marks the point of attachment. X1 = O=C1C2C3C=CC(C3)C2C(=O)N1CC(=O)*

Test system: pronase
Test: Proteolytic degradation assay with pronase (RP-HPLC, MALDI-TOF-MS)
Format: in vitro ADME
Conditions: Streptomyces griseus, pronase (isolated proteolytic enzyme) in DPBS; pronase 0.35 U/mL in DPBS, 37° C., 50 μM peptide, after 3 hours; read-out: peptide cleavage
Protocol: The stability of drug delivery systems serves as a basis for enhancing half-life of therapeutic cargos during the course of delivery to targeted areas. To evaluate the stability of peptide brush polymers, positively charged poly(GGSGSGK) and its single peptide analogue GGSGSGK were treated with pronase, a robust proteolytic enzyme isolated from the extracellular fluid of Streptomyces griseus. RP-HPLC and MALDI-TOF mass spectroscopy were used to quantify the cleavage of peptides (FIGS. 30-33). As expected, the peptide underwent rapid degradation in the presence of pronase, resulting in approximately 75% peptide cleavage after 3 hours.
Monomer Nor-GGSGSGK and polymer Poly(GGSGSGK) (50 μM, with respect to peptide concentration) were treated with pronase (0.35 U/mL) in DPBS at 37° C. After treatment, the enzyme was heat denatured at 65° C. for 15 min.

Structure (SMILES): NCCCC[C@H](NC(=O)CNC(=O)[C@H](CO)NC(=O)CNC(=O)[C@H](CO)NC(=O)CNC(=O)CN1C(=O)C2C3C=CC(C3)C2C1=O)C(N)=O (stereo partly shown) [GGSGSGK] (X1-GSGSGK-NH2; N-terminus assumed)
- metabolised at 3 h, 50 μM: ~75%
